One may read the EC50 as the midpoint of the concentration-response curve. The low end stands for higher potency in that assay, the high end for lower potency in that assay.

The test system of the test is isolated rabbit saphenous vein. The experiment in a line: 5HT1-like agonist activity on the isolated rabbit saphenous vein preparation (contraction). Particulars: pD2 = -log EC50 of contraction, after phenoxybenzamine 0.3 µM and pargyline 500 µM, 37°C; for EC50: Oryctolagus cuniculus. It counts as cell-based. The protocol:
5HT1-like agonist activity of the synthesis products on the isolated rabbit saphenous vein preparation.
This study was conducted using the method described by Van Heuven-Nolsen (Van Heuven-Nolsen et al., Eur. J. Pharmacol. 191 (3); 375-382; 1990) and male New Zealand rabbits were used. The animals were sacrificed by exposure to excess CO₂. Thereafter the saphenous vein of each rear extremity was excised. 5 mm long segments were obtained from each vein. Each segment was placed, using appropriate supports, in an organ bath containing a Krebs-Henseleit solution aerated with carbogen and thermostatically controlled to 37°C. These conditions were held for 25 minutes, after which the preparation was subjected to a traction of 2 g at the same time as phenoxybenzamine (0.3 µM) and pargyline (500 µM) were added to the organ bath over 30 minutes. The phenoxybenzamine is an irreversible antagonist of the α-adrenoreceptors, whilst pargyline is a selective monoaminooxidase (MAO) inhibitor. At the end of these 30 minutes, successive washings were performed with Krebs solution every 7 minutes, for a further 30 minutes to remove the excess phenoxybenzamine. Thereafter, the preparation was subjected to an increasing contraction by the addition of cumulative doses of sumatriptan (10⁻⁹ at 3x10⁻⁵ M), followed by washing and allowing to rest for 30 minutes until the segment returns to its basal tension. At the end of this time, a further cumulative curve is plotted with the product to be studied. The pD2 (-log EC₅₀, the product concentration producing 50% of its maximum contraction) and the Emax (maximum contraction achieved) were calculated.

For the molecule `CNS(=O)(=O)Cc1ccc2[nH]cc(CCCN3CCN(c4ncnc(OC)c4OC)CC3)c2c1` [Example 51, C-(3-{3-[4-(5,6-dimethoxy-pyrimidin-4-yl)-piperazin-1-yl]-propyl}-1H-indol-5-yl)-N-methyl-methanesulfonamide], the midpoint of the response, the EC50, lay at 7.24 nM. This lies in the single-digit nanomolar range.
Still for that read-out and setting: the result for `CNS(=O)(=O)Cc1ccc2[nH]cc(CCCNC3CCN(c4ncnc(OC)c4OC)C3)c2c1` (stereo not shown) [Example 56, C-(3-{3-[1-(5,6-dimethoxy-pyrimidin-4-yl)-pyrrolidin-3-ylamino]-propyl}-1H-indol-5-yl)-N-methyl-methanesulfonamide] reads 457 nM.
With `CNS(=O)(=O)Cc1ccc2[nH]cc(CCCNCCN(C)c3ncncc3OC)c2c1` [Example 59, C-[3-(3-{2-[5-methoxy-pyrimidin-4-yl)-methylaminolethylamino}-propyl)-1H-indol-5-yl]-N-methyl-methanesulfonamide.], the “RABBIT SAPHENOUS VEIN pD2” value came to 6.64±0.24.
As to `CNS(=O)(=O)Cc1ccc2[nH]cc(CCCN(C)CCN(C)c3ncnc(OC)c3OC)c2c1` [Example 62, C-{3-[3-({2-[(5,6-dimethoxy-pyrimidin-4-yl)-methyl-amino]-ethyl}-methyl-amino)-propyl]-1H-indol-5-yl}-N-methyl-methanesulfonamide], the EC50 is 120 nM.
The same measure, in the same setting: the result for `CNc1ncnc(N2CCN(CCCc3c[nH]c4ccc(CS(=O)(=O)NC)cc34)CC2)c1OC` [Example 64, C-(3-{3-[4-(6-methylamino-5-methoxy-pyrimidin-4-yl)-piperazin-1-yl]-propyl}-1H-indol-5-yl)-N-methyl-methanesulfonamide] reads 105 nM; that for `COc1cnc(C)nc1N1CCN(CCCc2c[nH]c3ccc(F)cc23)CC1` [Example 70, 5-fluoro-3-{3-[4-(2-methyl-5-methoxy-pyrimidin-4-yl)-piperazin-1-yl]-propyl}-1H-indole], 324 nM.
The same measure, in the same setting: the result for `COc1ccc2[nH]cc(CCCN3CCN(c4ncnc(OC)c4OC)CC3)c2c1` [Example 80, 3-{3-[4-(5,6-dimethoxy-pyrimidin-4-yl)-piperazin-1-yl]-propyl}-5-methoxy-1H-indole] reads 1.38 nM; that for `COc1cncnc1N1CCN(CC=Cc2c[nH]c3ccc(F)cc23)CC1` [Example 83, 5-fluoro-3-{3-[4-(5-methoxy-pyrimidin-4-yl)-piperazin-1-yl]-propenyl}-1H-indole], 724 nM; that for `CNS(=O)(=O)Cc1ccc2[nH]cc(CCN3CCN(c4ncncc4OC)CC3)c2c1` [Example 85, C-(3-{2-[4-(5-methoxy-pyrimidin-4-yl)-piperazin-1-yl]-ethyl}-1H-indol-5-yl)-N-methyl-methanesulfonamide], 2630 nM.
The same measure, in the same setting: with `CNS(=O)(=O)Cc1ccc2[nH]cc(CCCN3CCN(c4ncncc4-c4ccccc4)CC3)c2c1` [Example 87, C-(3-{3-[4-(5-phenyl-pyrimidin-4-yl)-piperazin-1-yl]-propyl}-1H-indol-5-yl)-N-methylmethanesulfonamide] the figure was 282 nM.
The molecule `NCCc1c[nH]c2ccc(O)cc12` [SEROTONIN, reference compound] showed a concentration for a half-maximal effect (EC50) of 49 nM.
The same measure, in the same setting: the result for `CNS(=O)(=O)Cc1ccc2[nH]cc(CCN(C)C)c2c1` [SUMATRIPTAN, sumatriptan, reference compound] reads 347 nM.
In the case of “C-(3-{3-[3-(5,6-dimethoxy-pyrimidin-4-yl)-piperazin-1-yl]-1-methyl-1H-indol-5-yl)-N-methyl-methanesulfonamide [Example 78]”, the “RABBIT SAPHENOUS VEIN pD2” value stood at 6.80±0.56.
